Measurements taken from patent US8093274B2, “Inhibitors of protein prenyltransferases” (The Regents of the University of California, priority 2006, dated 2012).
Read-outs that look alike come from different tables or passages of the source. Values belong to the compound of their own block, whether it stands above or below them.

Tests used:
[1] = molecular target: GGTase I (substrate K-Ras4B) (Homo sapiens, UniProt P49354+P53609); assay: GGTase I filter-binding assay with K-Ras4B as substrate; assay type: biochemical; conditions: read-out: % activity of GGTase I for protein K-Ras4B in the presence of the compound
Experimental: (§1) The pilot library was screened for inhibitors of protein geranylgeranyltransferase type I. Protein prenyltransferase assays were carried out by using filter binding. Two different substrates, RhoA and K-Ras4B, were used for the assay. RhoA ends with the CaaL motif and is an exclusive substrate for GGTase I, while K-Ras4B ends with the CaaX motif and is modified by both GGTase I and FTase.
(§2) The % activity of GGTase I was determined as follows: a working solution that contained each compound in DMSO at the concentration of 1 mM was prepared. The working solution was added to GGTase I reaction mixture so that the final concentration of the compound is 50 μM. GGTase I activity was assayed by incubating [^3H]GGPP with K-Ras4B or RhoA protein in the presence of GGTase I and examining radioactivity incorporated into the substrate protein by spotting onto a filter paper. After washing with TCA, ethanol and acetone, the radioactivity retained on the filter was determined by the use of a scintillation counter. GGTase I activity in the presence of DMSO was taken as a 100% value and the activity in the presence of the compound was shown as percent activity compared with the 100% value. […] For 6-aryl-4-mercapto-N-sulfonyl-piperidine-3-carboxylic acid 11 the 4-mercapto substituent appeared critical to endowing GGTase inhibitory activity. […] 4-Chlorobenzylthio substituent was the next best; 12 compounds out of 21 containing the 4-chlorobenzylthio moiety were active. 4-Benzylthio substituent was also good; 7 piperidines out of 21 bearing 4-benzylthio group were active. […] 19 imines (C15>C12=C41>C40>C01=C11>C05=C10=C30=C35=C37=C38>C02, C03, C04, C06, C39=C43) out of 21 appeared in the GGTIs. […] This corresponds to 47 6-aryl-4-mercapto-N-sulfonyl-piperidine-3-carboxylic acids out of 357 compounds.
(§3) A collection of 138 heterocycles was screened for their ability to inhibit the activity of human GGTase-I to geranylgeranylate K-Ras4B or RhoA. Purified GGTase-1 was incubated with its substrate protein K-Ras4B or RhoA, [^3H]GGPP, and the 138 compounds. After 30 min, the degree of incorporation of tritiated geranylgeranyl groups was measured using a scintillation counter.

[2] = molecular target: GGTase I (substrate RhoA) (Homo sapiens, UniProt P49354+P53609); assay: GGTase I filter-binding assay with RhoA as substrate; assay type: biochemical; conditions: for activity at 50 µM: read-out: % activity of GGTase I for protein RhoA in the presence of the compound; for IC50: FIG. 15, read-out: IC50 for the inhibition of GGTase I using RhoA as a substrate
Experimental: as §1, §2, §3
(§4) The GGTase-I assay was carried out using RhoA as a substrate protein, GGTase-I (JENA Bioscience) and [3H]geranylgeranyl pyrophosphate. Incubation was for 30 min at 37 C. GGTase-H (or RabGGTase) assay was carried out using YPT1 as a substrate protein, GGTase-H (Calbiochem, San Diego, Calif.) plus REP1 (Calbiochem) and [3H]geranylgeranyl pyrophosphate. Incubation was for 30 min at 37 C. FIGS. 20D-20F show the three dimensional structure of GGTase I (D), FTsse (E) and GGTase II (F) which can be obtained from X-ray diffraction studies of protein crystals.

[3] = molecular target: T1, protein farnesyltransferase (FTase) (Rattus norvegicus, UniProt Q02293+Q04631); assay: Protein farnesyltransferase assay with K-Ras4B and [3H]FPP; assay type: biochemical; conditions: for inhibition of FTase activity: FIG. 16, concentration increased to 100 μM
T1 construct: purchased JENA Bioscience
Excerpt: To further characterize the pilot library, inhibitors of protein farnesyltransferase were identified. This was accomplished by using K-Ras4B as a substrate protein, tritiated farnesylpyrophosphate ([^3H]FPP) and protein farnesyltransferase. See Finegold, A. A., Johnson, D. I., Farnsworth, C. C., Gelb, M. H., Judd, S. R., Glomset, J. A. and Tamanoi, F. (1991) Protein geranylgeranyltransferase of Saccharomyces cerevisiae is specific for Cys-Xaa-Xaa-Leu motif and requires the CDC43 gene product but not the DPRI gene product. Proc. Natl. Acad. Sci. USA 88, 4448-4452. […] On the other hand, the structure of the compounds P1-F11, P2-B7 and P2-E9 resemble those of GGTIs. The FTI P1-F11 resembles the GGTI P1-F10, while the FTI P2-B7 resembles the GGTI P2-C10. The FTI P2-E9 is similar to the GGTI P2-G3. Similarity of some GGTI and FTI compounds may point to common structural features between the two closely related enzymes. As described before, FTase and GGTase I have similar three-dimensional structures and a shared alpha subunit. On the other hand, FTase specific inhibitors may recognize a region(s) that is different between the two enzymes.
Varying concentrations of the two compounds were added to each enzyme reaction. The FTase (protein farnesyltransferase) assay was carried out using K-Ras4B as a substrate protein, FTase (JENA Bioscience, San Diego, Calif.) and […] pyrophosphate. Incubation was for 30 min at 37 C.

[4] = tested on: GGTase-I; assay: GGTase-I inhibition kinetics, double reciprocal plots; assay type: biochemical; conditions: varying GGPP with fixed RhoA
Experimental: as §4
The graphs in FIG. 21 show double reciprocal plots obtained from substrate velocity curves for the inhibition of GGTase-I by P3-E5 (left) and P5-H6 (right). The upper figures show varying GGPP concentrations with a fixed RhoA protein concentration were used. The lower figures show varying RhoA protein concentrations with a fixed GGPP concentration was used. The following scale was used to prepare the graphs: Y-axis: 1/v, fmol/min. X-axis: 1/s, mM.

[5] = tested on: geranylgeranylated Rheb (Rheb-CSVL) in HEK 293 cells; assay: Geranylgeranylation of Rheb-CVSL in HEK 293 cells, mobility shift on Western blot; assay type: cell-based, human; conditions: HEK 293 cells; FIG. 33
Excerpt: Finally, we investigated in vivo effects of compounds 22 (also known as UC-22) and 23 (also known as UC-23). Human embryonic kidney (HEK) 293 cells were transfected with the Rheb-CSVL construct that expresses the geranylgeranylated form of the Rheb protein. Inhibition of the geranylgeranylation of this protein can be detected from a shift in its mobility on SDS polyacrylamide gel; the unprocessed form appears as a slowly migrating band.
Human embryonic kidney (HEK) 293 cells expressing Myc-HA tagged-Rheb-CVSL (upper) or Myc-HA tagged-Rheb-WT (lower) were treated with P3-E5 for 48 hours and then lysed. The cell lysates were run on a SDS polyacrylamide gel and immunoblotted using anti-Myc or anti-Actin antibody. The descriptors P and U indicate processed and unprocessed Rheb, respectively.
Human embryonic kidney (HEK) 293 cells expressing Myc-HA tagged-Rheb-CVSL (upper) or Myc-HA tagged-Rheb-WT (lower) were treated with mP5-H6a (also referred to as mP5-H6), or GGTI-298 for 48 hours and then lysed. Lysates were run on a SDS polyacrylamide gel and immunoblotted with anti-Myc or anti-Actin antibody.

[6] = tested on: K562 cells; assay: Proliferation of K562 cells, cell counting kit-8; assay type: cell-based, human; conditions: 72 hours; relative to DMSO control
Experimental: K562 cells are a cell line of human erythroleukemia cells. The K562 cells were treated with P3-E5, P5-H6 or GGTI-298 (a known GGTI compound illustrated in FIG. 27) for 72 hours and then cell number was counted using cell counting kit-8 (Dojindo, Gaithersburg, Md.). Cell viability relative to the DMSO control and the known GGTI compound is plotted in FIG. 23.

[7] = molecular target: GGTase I (Homo sapiens, UniProt P49354+P53609); assay: GGTase I assay, substrate not specified or K-Ras4B and RhoA compared; assay type: biochemical; conditions: for inhibition of GGTase I: FIG. 16; for substrate preference of GGTase I inhibition (RhoA vs K-Ras4B), known GGTIs: FIG. 17; for GGTI activity in screen of 138 heterocycles: K-Ras4B or RhoA substrate, 30 min
Experimental: as §1, §2, §3

[8] = 50 μM compound, DMSO = 100%, smaller numbers indicate better inhibition, first number of pair
[9] = 50 μM compound, DMSO = 100%, smaller numbers indicate better inhibition, second number of pair

Structure (SMILES): Cc1ccc(S(=O)(=O)N2[C@@H](c3cccc(F)c3)C(C(=O)O)=C[C@H]2C(C)(C)C)cc1
activity at 50 µM [1]: 23.7%
activity at 50 µM [2]: 9.1%

Structure (SMILES): Cc1ccccc1S(=O)(=O)N1[C@@H](c2ccc(Cl)cc2)C(C(=O)O)=C[C@H]1CC1CCCC1
activity at 50 µM [1]: 23.7%
activity at 50 µM [2]: 9.1%

Structure (SMILES): Cc1ccc(S(=O)(=O)N2C(c3ccc(Cl)c(Cl)c3)CC=C(C(=O)O)[C@@H]2c2cccc(Br)c2)cc1 (stereo partly shown)
activity at 50 µM [1]: 8.6%
activity at 50 µM [2]: 3.2%

Structure (SMILES): Cc1ccc(S(=O)(=O)N2C(c3ccc(Cl)c(Cl)c3)CC=C(C(=O)O)[C@@H]2c2cccc(Cl)c2)cc1 (stereo partly shown)
activity at 50 µM [1]: 10.7%
activity at 50 µM [2]: 4.5%

Structure (SMILES): Cc1ccccc1S(=O)(=O)N1C(c2ccc(Cl)cc2)CC=C(C(=O)O)[C@@H]1c1ccccc1 (stereo partly shown)
activity at 50 µM [1]: 13.4%
activity at 50 µM [2]: 5.8%

Structure (SMILES): Cc1ccc(S(=O)(=O)N2C(c3ccc(Cl)c(Cl)c3)CC=C(C(=O)O)[C@@H]2c2ccc(Br)cc2)cc1 (stereo partly shown)
activity at 50 µM [1]: 18.7%
activity at 50 µM [2]: 11.3%

Structure (SMILES): CC(C)CCS[C@H]1[C@@H](C(=O)O)[C@H](c2ccc(Cl)cc2)N(S(=O)(=O)c2ccccc2)[C@@H]1C(C)C
activity at 50 µM [1, 8]: 28.1%
activity at 50 µM [2, 9]: 5.9%

Structure (SMILES): Cc1ccccc1S(=O)(=O)N1[C@@H](c2ccc(Cl)cc2)C(C(=O)O)=C[C@H]1C(C)(C)C (relative stereo) [P5-H6]
activity at 50 µM [1, 8]: 13.3%
activity at 50 µM [2, 9]: 5.3%
specificity of GGTase I inhibition ([2]; compared with FTase and GGTase-II, varying concentrations, FIGS. 20A-20C): specifically inhibit GGTase I
inhibition of FTase ([3]; at concentrations at which they inhibited GGTase-I by more than 90%): did not inhibit FTase
mode of inhibition of GGTase-I [4]: compete with a substrate protein but do not compete with GGPP
inhibition of geranylgeranylation of Rheb-CSVL within the cell [5]: inhibit geranylgeranylation within the cell
inhibition of proliferation of K562 cells [6]: inhibit proliferation of K562 cells

Structure (SMILES): Cn1cncc1CN1C[C@@H](Cc2ccccc2)N(S(=O)(=O)c2cccs2)Cc2cc(C#N)ccc21 [BMS225975, reference compound]
inhibition of GGTase I [7]: does not inhibit GGTase I
inhibition of FTase activity [3]: inhibits FTase

Structure (SMILES): COC(=O)[C@H](CC(C)C)NC(=O)c1ccc(NC[C@@H](N)CS)cc1-c1cccc2ccccc12 [GGTI-298, reference compound]
IC50 [2]: 1600 nM
inhibition of GGTase I [7]: inhibits GGTase I
substrate preference of GGTase I inhibition (RhoA vs K-Ras4B), known GGTIs [7]: inhibit RhoA-driven GGTase I activity slightly better than K-Ras4B-driven GGTase I activity
inhibition of FTase activity [3]: little inhibition was observed with FTase

Structure (SMILES): COC(=O)C(CC(C)C)NC(=O)c1ccc(NCc2cnc[nH]2)cc1-c1ccccc1C (stereo not shown) [GGTI-2166, reference compound]
IC50 [2]: 500 nM
substrate preference of GGTase I inhibition (RhoA vs K-Ras4B), known GGTIs [7]: inhibit RhoA-driven GGTase I activity slightly better than K-Ras4B-driven GGTase I activity

Structure (SMILES): O=C(O)C1=CCC(c2ccc(Cl)cc2)N(S(=O)(=O)c2ccc(Cl)cc2)[C@H]1c1cccc(Cl)c1 (stereo partly shown) [P3-D9]
activity at 50 µM [1, 8]: 33.1%
activity at 50 µM [2, 9]: 26.7%
IC50 [2]: 5000 nM
inhibition of FTase activity [3]: no inhibition of FTase activity was observed

Structure (SMILES): CC[C@@H]1C=C(C(=O)O)[C@H](c2ccc(F)cc2)N1S(=O)(=O)c1ccc(C)cc1 [compound 1]
GGTI activity in screen of 138 heterocycles [7]: identified as GGTIs

Structure (SMILES): Cc1ccc(S(=O)(=O)N2[C@@H](c3ccccc3)C(C(=O)O)=CC[C@H]2c2ccc(F)cc2)cc1 [compound 2]
GGTI activity in screen of 138 heterocycles [7]: identified as GGTIs

Continued, values first:

activity at 50 µM [1, 8]: 30.4%
activity at 50 µM [2, 9]: 9.7%
Structure (SMILES): C=CCS[C@H]1[C@@H](C(=O)O)[C@H](c2cccc(F)c2)N(S(=O)(=O)c2ccc(C)cc2)[C@@H]1CC1CCCC1

activity at 50 µM [1, 8]: 20.2%
activity at 50 µM [2, 9]: 7.8%
Structure (SMILES): CCC[C@@H]1[C@@H](SCCC(=O)OC(C)(C)C)[C@@H](C(=O)O)[C@H](c2cccc(F)c2)N1S(=O)(=O)c1ccc(C)cc1

activity at 50 µM [1, 8]: 27.4%
activity at 50 µM [2, 9]: 3.5%
Structure (SMILES): CCCC[C@@H]1[C@@H](Sc2ccc(OC)cc2)[C@@H](C(=O)O)[C@H](c2cccc(F)c2)N1S(=O)(=O)c1ccc(C)cc1

activity at 50 µM [1, 8]: 31.9%
activity at 50 µM [2, 9]: 8.2%
Structure (SMILES): Cc1ccc(S(=O)(=O)N2[C@H](CC3CCCC3)[C@@H](SCCC(=O)OC(C)(C)C)[C@@H](C(=O)O)[C@@H]2c2cccc(F)c2)cc1

activity at 50 µM [1, 8]: 21.3%
activity at 50 µM [2, 9]: 9.2%
Structure (SMILES): CCCCCC[C@@H]1[C@@H](Sc2ccc(C)cc2)[C@@H](C(=O)O)[C@H](c2ccc(Cl)c(Cl)c2)N1S(=O)(=O)c1ccc(C)cc1

activity at 50 µM [1, 8]: 15%
activity at 50 µM [2, 9]: 7.5%
Structure (SMILES): CCCCCC[C@@H]1[C@@H](Sc2ccc(C)cc2)[C@@H](C(=O)O)[C@H](c2ccc(Cl)cc2)N1S(=O)(=O)c1ccccc1

activity at 50 µM [1, 8]: 20.1%
activity at 50 µM [2, 9]: 7.4%
Structure (SMILES): CCCCCC[C@@H]1[C@@H](SC2CCCC2)[C@@H](C(=O)O)[C@H](c2ccc(C#N)cc2)N1S(=O)(=O)c1ccc(C)cc1
